One block for each compound: values may come before it. Activity calls are given as the source filed them. The calls are words filed in the database; no cut-off is given here.
Experiments:
[1] = target: NACHT, LRR and PYD domains-containing protein 3 (Mus musculus, UniProt Q8R4B8); assay: Inhibition of NLRP3 in mouse J774.A1 cells assessed as reduction IL-1beta release by ELISA; type: cell-based
Mus musculus [2] = assay: Antiinflammatory activity against DSS-induced ulcerative colitis male C57BL/6 mouse model assessed as reduction in cleaved GSDMD level in colonic tissue at 7.5 to 30 mg/kg administered via oral gavage for 4 days by Western blot analysis; type: functional, organism-based; details: dose 7.5-30 mg/kg, time 4.0 day
J774.A1 [3] = assay: Effect on TNF-alpha secretion in LPS-induced mouse J774.A1 cells at 0.2 to 3.2 uM pre-incubated with compound for 2 hrs followed by LPS-induction and measured after 5 hrs by ELISA; type: functional, cell-based; details: dose 0.2-3.2 µM, time 7.0 hrs
J774.A1 [4] = assay: Inhibition of NFkappaB signaling pathway in LPS-induced mouse J774.A1 cells assessed as reduction in IkappaBalpha phosphorylation at 3.2 uM pre-incubated with compound for 2 hrs followed by LPS-induction and measured after 5 hrs by Western blot analysis; type: cell-based; details: time 7.0 hrs
Mus musculus [5] = assay: Antiinflammatory activity against DSS-induced ulcerative colitis male C57BL/6 mouse model assessed as amelioration of crypt loss in colonic tissue at 7.5 to 30 mg/kg administered via oral gavage for 4 days; type: functional, organism-based; details: dose 7.5-30 mg/kg, time 4.0 day
[6] = target: NACHT, LRR and PYD domains-containing protein 3 (Mus musculus) (UniProt Q8R4B8); assay: Inhibition of NLRP3 inflammasome activation in LPS/nigericin-induced mouse J774.A1 cells assessed as reduction in LDH level […]; type: cell-based; details: dose 0.2-3.2 µM
Chain of NACHT, LRR and PYD domains-containing protein 3 (Mus musculus) (Q8R4B8 whole entry, the tested form may be a part): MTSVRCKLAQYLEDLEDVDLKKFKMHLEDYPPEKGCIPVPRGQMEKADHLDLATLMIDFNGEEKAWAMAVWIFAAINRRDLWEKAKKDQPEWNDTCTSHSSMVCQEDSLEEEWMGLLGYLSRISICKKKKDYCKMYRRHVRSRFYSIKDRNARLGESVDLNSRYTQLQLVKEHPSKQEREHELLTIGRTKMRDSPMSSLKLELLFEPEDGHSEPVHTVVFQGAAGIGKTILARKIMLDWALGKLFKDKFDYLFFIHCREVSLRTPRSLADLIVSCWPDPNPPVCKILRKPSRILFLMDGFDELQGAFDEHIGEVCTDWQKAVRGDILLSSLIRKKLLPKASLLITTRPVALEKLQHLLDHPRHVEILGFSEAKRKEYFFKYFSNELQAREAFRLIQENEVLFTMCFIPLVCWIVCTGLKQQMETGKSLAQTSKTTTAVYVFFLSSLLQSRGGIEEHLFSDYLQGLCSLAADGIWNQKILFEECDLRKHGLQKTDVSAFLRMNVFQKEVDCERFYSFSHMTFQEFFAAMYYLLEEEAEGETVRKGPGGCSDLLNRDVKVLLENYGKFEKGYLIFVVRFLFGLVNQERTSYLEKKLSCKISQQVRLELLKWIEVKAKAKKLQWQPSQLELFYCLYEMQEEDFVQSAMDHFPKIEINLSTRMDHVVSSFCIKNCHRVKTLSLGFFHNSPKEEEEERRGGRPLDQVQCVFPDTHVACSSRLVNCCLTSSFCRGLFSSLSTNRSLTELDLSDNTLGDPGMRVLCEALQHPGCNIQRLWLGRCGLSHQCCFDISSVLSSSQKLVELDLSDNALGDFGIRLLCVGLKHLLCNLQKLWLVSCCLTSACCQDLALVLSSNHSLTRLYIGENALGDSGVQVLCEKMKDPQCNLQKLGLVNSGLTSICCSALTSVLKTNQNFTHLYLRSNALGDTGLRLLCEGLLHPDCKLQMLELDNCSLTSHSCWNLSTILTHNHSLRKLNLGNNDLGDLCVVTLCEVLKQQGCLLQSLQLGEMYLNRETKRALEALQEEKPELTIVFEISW

[7] = target: NACHT, LRR and PYD domains-containing protein 3 (Mus musculus) (UniProt Q8R4B8); assay: Inhibition of NLRP3 inflammasome activation in LPS/nigericin-induced mouse J774.A1 cells assessed as inhibition of caspase-1 p20 subunit formation at 0.2 to 3.2 uM by Western blot analysis; type: cell-based; details: dose 0.2-3.2 µM
Mus musculus [8] = assay: Antiinflammatory activity against DSS-induced ulcerative colitis male C57BL/6 mouse model assessed as reduction in caspase-1 level in colonic tissue at 7.5 to 30 mg/kg administered via oral gavage for 4 days by Western blot analysis; type: functional, organism-based; details: dose 7.5-30 mg/kg, time 4.0 day
J774.A1 [9] = assay: Effect on p65 level in LPS-induced mouse J774.A1 cells at 0.2 to 3.2 uM pre-incubated with compound for 2 hrs followed by LPS-induction and measured after 5 hrs by Western blot analysis; type: functional, cell-based; details: dose 0.2-3.2 µM, time 7.0 hrs
J774.A1 [10] = assay: Cytotoxicity against mouse J774.A1 cells at 0.4 to 6.4 uM incubated for 24 hrs by CCK-8 assay; type: toxicity, cell-based; details: j774.a1, 24 h, dose 0.4-6.4 µM
[11] = target: NACHT, LRR and PYD domains-containing protein 3 (Mus musculus) (UniProt Q8R4B8); assay: Inhibition of NLRP3 inflammasome activation in LPS/nigericin-induced mouse BMDM cells assessed as reduction in IL-1beta release by ELISA; type: cell-based; details: dose 0.125-4 µM
Mus musculus [12] = assay: Antiinflammatory activity against DSS-induced ulcerative colitis male C57BL/6 mouse model assessed as increase in colon length at 7.5 to 30 mg/kg administered via oral gavage for 4 days; type: functional, organism-based; details: dose 7.5-30 mg/kg, time 4.0 day
[13] = target: T1, Apoptosis-associated speck-like protein containing a CARD (Mus musculus) (UniProt Q9EPB4); assay: Inhibition of LPS/nigericin-induced ASC oligomerization in mouse J774.A1 cells at 0.8 to 3.2 uM by immunoblot analysis; type: cell-based; details: dose 0.8-3.2 µM
T1 sequence (whole entry): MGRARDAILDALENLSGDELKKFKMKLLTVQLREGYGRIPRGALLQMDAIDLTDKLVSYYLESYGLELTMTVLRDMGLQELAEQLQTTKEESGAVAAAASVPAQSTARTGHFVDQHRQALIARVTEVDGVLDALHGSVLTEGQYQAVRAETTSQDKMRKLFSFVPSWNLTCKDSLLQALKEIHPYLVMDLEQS

[14] = target: NLRP3-NEK7 (Mus musculus) (UniProt Q8R4B8+Q9ES74); assay: Inhibition of NLRP3/NEK7 protein-protein interaction in LPS/nigericin-induced mouse J774.A1 cells incubated for 6 hrs by coimmunoprecipitation analysis; type: cell-based
Chain of NLRP3-NEK7 (Mus musculus) (Q8R4B8 whole entry, looked up): as the sequence (Q8R4B8 whole entry, the tested form may be a part) above
Chain of NLRP3-NEK7 (Mus musculus) (Q9ES74 whole entry, looked up): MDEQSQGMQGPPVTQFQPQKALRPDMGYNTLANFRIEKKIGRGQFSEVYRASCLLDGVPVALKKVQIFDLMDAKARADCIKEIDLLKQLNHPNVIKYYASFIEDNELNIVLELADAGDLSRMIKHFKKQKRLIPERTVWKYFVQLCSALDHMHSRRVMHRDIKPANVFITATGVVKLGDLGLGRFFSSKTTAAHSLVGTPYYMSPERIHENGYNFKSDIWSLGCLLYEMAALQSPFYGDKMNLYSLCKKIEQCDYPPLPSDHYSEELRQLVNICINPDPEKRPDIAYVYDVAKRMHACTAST

Mus musculus [15] = assay: In vivo inhibition of NLRP3 in colonic tissue of DSS-induced ulcerative colitis male C57BL/6 mouse model at 7.5 to 30 mg/kg administered via oral gavage for 4 days by Western blot analysis; type: functional, organism-based; details: dose 7.5-30 mg/kg, time 4.0 day
Mus musculus [16] = assay: Effect on DSS-induced body weight loss in male C57BL/6 mouse model of ulcerative colitis at 7.5 to 30 mg/kg administered via oral gavage for 4 days; type: functional, organism-based; details: dose 7.5-30 mg/kg, time 4.0 day
Mus musculus [17] = assay: Antiinflammatory activity against DSS-induced ulcerative colitis male C57BL/6 mouse model assessed as reduction in IL-1beta level in colonic tissue at 7.5 to 30 mg/kg administered via oral gavage for 4 days by ELISA; type: functional, organism-based; details: dose 7.5-30 mg/kg, time 4.0 day
Mus musculus [18] = assay: Antiinflammatory activity against DSS-induced ulcerative colitis male C57BL/6 mouse model assessed as amelioration of mucosal ulceration in colonic tissue at 7.5 to 30 mg/kg administered via oral gavage for 4 days; type: functional, organism-based; details: dose 7.5-30 mg/kg, time 4.0 day
[19] = target: NACHT, LRR and PYD domains-containing protein 3 (Mus musculus) (UniProt Q8R4B8); assay: Inhibition of NLRP3 inflammasome activation in LPS/nigericin-induced mouse J774.A1 cells assessed as reduction in IL-1beta release by ELISA; type: cell-based; details: dose 0.125-4 µM
Mus musculus [20] = assay: Antiinflammatory activity against DSS-induced ulcerative colitis male C57BL/6 mouse model assessed as reduction in fecal blood index at 7.5 to 30 mg/kg administered via oral gavage for 4 days; type: functional, organism-based; details: dose 7.5-30 mg/kg, time 4.0 day
J774.A1 [21] = assay: Effect on phosphorylated p65 level in LPS-induced mouse J774.A1 cells at 0.2 to 3.2 uM pre-incubated with compound for 2 hrs followed by LPS-induction and measured after 5 hrs by Western blot analysis; type: functional, cell-based; details: dose 0.2-3.2 µM, time 7.0 hrs
[22] = target: NACHT, LRR and PYD domains-containing protein 3 (Mus musculus) (UniProt Q8R4B8); assay: Inhibition of NLRP3 inflammasome activation in LPS/nigericin-primed mouse BMDM cells assessed as inhibition of ASC speck formation incubated for 1 hr by DAPI staining based immunofluorescence analysis; type: cell-based
[23] = target: Nlrp3/Pycard (Mus musculus) (UniProt Q8R4B8+Q9EPB4); assay: Inhibition of NLRP3/ASC protein-protein interaction in LPS/nigericin-induced mouse J774.A1 cells at 3 uM by coimmunoprecipitation analysis; type: cell-based
Chain of Nlrp3/Pycard (Mus musculus) (Q8R4B8 whole entry, looked up, one chain of several): as the sequence (Q8R4B8 whole entry, the tested form may be a part) above

HEK-293T = assay: Cytotoxicity against HEK293T cells at 0.4 to 6.4 uM incubated for 24 hrs by CCK-8 assay; type: toxicity, cell-based; details: human, dose 0.4-6.4 µM
Mus musculus [24] = assay: Antiinflammatory activity against DSS-induced ulcerative colitis male C57BL/6 mouse model assessed as amelioration of epithelial damage in colonic tissue at 7.5 to 30 mg/kg administered via oral gavage for 4 days; type: functional, organism-based; details: dose 7.5-30 mg/kg, time 4.0 day
[25] = target: NACHT, LRR and PYD domains-containing protein 3 (Mus musculus) (UniProt Q8R4B8); assay: Inhibition of NLRP3 inflammasome activation in LPS/nigericin-induced mouse J774.A1 cells assessed as inhibition of GSDMD cleavage at 0.2 to 3.2 uM by Western blot analysis; type: cell-based; details: dose 0.2-3.2 µM
[26] = target: NACHT, LRR and PYD domains-containing protein 3 (Mus musculus) (UniProt Q8R4B8); assay: Inhibition of NLRP3 inflammasome activation in LPS/nigericin-induced mouse J774.A1 cells assessed as inhibition of mature IL-1beta release at 0.2 to 3.2 uM by Western blot analysis; type: cell-based; details: dose 0.2-3.2 µM
[27] = target: NACHT, LRR and PYD domains-containing protein 3 (Mus musculus) (UniProt Q8R4B8); assay: Inhibition of LPS/nigericin-induced NLRP3 oligomerization in mouse J774.A1 cells at 3.2 uM by SDS-PAGE analysis; type: cell-based

Chain of NACHT, LRR and PYD domains-containing protein 3 (Q8R4B8 whole entry, the tested form may be a part): as above

Structure (SMILES): O=C(N[C@@H]1CCc2ccccc21)c1cc(-c2ccccc2)nc2ccccc12
IC50 [1]: 7950 nM

Structure (SMILES): CSc1ccccc1NC(=O)c1cc(-c2ccccc2)nc2ccccc12
IC50 [1]: 3080 nM

Structure (SMILES): CC[C@H](NC(=O)c1cc(-c2cccc(F)c2)nc2ccccc12)c1ccccc1
IC50 [1]: 2820 nM

Structure (SMILES): O=C(NCCc1ccccc1)c1cc(-c2ccccc2)nc2ccccc12
IC50 [1]: 70400 nM

Structure (SMILES): O=C(Nc1ccccc1OCc1ccccc1)c1cc(-c2ccccc2)nc2ccccc12
IC50 [1]: 77000 nM

Structure (SMILES): CCC(C)NC(=O)c1cc(-c2ccccc2)nc2ccccc12 (stereo unspecified)
IC50 [1]: 39500 nM

Structure (SMILES): O=C(NC1CC(F)(F)C1)c1cc(-c2ccccc2)nc2ccccc12
IC50 [1]: 5800 nM

Structure (SMILES): COC(=O)[C@@H](NC(=O)c1cc(-c2ccccc2)nc2ccccc12)c1ccccc1
IC50 [1]: 3000 nM

More lines, main results first:

IC50 [1]: 1040 nM
Structure (SMILES): CC[C@H](NC(=O)c1c(C)c(-c2cccc(F)c2)nc2ccc(OC)cc12)c1ccccc1

IC50 [1]: 2750 nM
Structure (SMILES): CC[C@H](NC(=O)c1c(C)c(-c2ccc(C(F)(F)F)cc2)nc2ccccc12)c1ccccc1

IC50 [1]: 1060 nM
Structure (SMILES): CC[C@H](NC(=O)c1c(C)c(-c2cccc(F)c2)nc2c(OC)cccc12)c1ccccc1

IC50 [1]: 920 nM
Structure (SMILES): CC[C@H](NC(=O)c1c(C)c(-c2cccc(F)c2)nc2cc(Br)ccc12)c1ccccc1

IC50 [1]: 2080 nM
Structure (SMILES): CC[C@@H](NC(=O)c1cc(-c2ccccc2)nc2ccccc12)c1ccccc1

IC50 [1]: 1120 nM
Structure (SMILES): CC[C@H](NC(=O)c1c(C)c(-c2ccc(F)cc2)nc2ccccc12)c1ccccc1

IC50 [1]: 420 nM
Structure (SMILES): CC[C@H](NC(=O)c1c(C)c(-c2cccc(F)c2)nc2c(NS(=O)(=O)C3CC3)cccc12)c1ccccc1

IC50 [1]: 1210 nM
Structure (SMILES): CC[C@H](NC(=O)c1c(C)c(-c2cccc(F)c2)nc2ccc(Br)cc12)c1ccccc1

IC50 [1]: 180 nM | inhibition [6]: Dose-dependent-effect | inhibition [7]: Active | inhibition [11]: Dose-dependent-effect | inhibition [13]: Active | inhibition [14]: inactive | inhibition [19]: Dose-dependent-effect | inhibition [22]: Active | inhibition [23]: Active | inhibition [25]: Active | inhibition [26]: Active | inhibition [27]: Active
Structure (SMILES): CC[C@H](NC(=O)c1c(C)c(-c2cccc(F)c2)nc2c([N+](=O)[O-])cccc12)c1ccccc1
Activity (Mus musculus [2]): Active | Activity (J774.A1 [3]): No effect | inhibition (J774.A1 [4]): Active; Slight Inhibitory Effect On P-Ikappabalpha | Activity (Mus musculus [5]): Active | Activity (Mus musculus [8]): Active | Activity (J774.A1 [9]): No effect | Activity (J774.A1 [10]): Non-toxic | Activity (Mus musculus [12]): Active | inhibition (Mus musculus [15]): Active | Activity (Mus musculus [16]): No effect | Activity (Mus musculus [17]): Active | Activity (Mus musculus [18]): Active | Activity (Mus musculus [20]): Active | Activity (J774.A1 [21]): No effect | Activity (HEK-293T): Non-toxic | Activity (Mus musculus [24]): Active

IC50 [1]: 1360 nM
Structure (SMILES): CC[C@H](NC(=O)c1c(C)c(-c2cccc(F)c2)nc2ccc(F)cc12)c1ccccc1

IC50 [1]: 1270 nM
Structure (SMILES): CC[C@H](NC(=O)c1c(C)c(-c2ccccc2)nc2ccccc12)c1ccccc1 [SB-222200]
